Tests used:
Type in all cases: cell-based
YAP-TEAD binding = target: T1, YAP-TEAD binding (Homo sapiens, UniProt Q15561); assay: Endogenous TEAD4 immunoprecipitation in NCI-H226 mesothelioma cells; settings: 24 hrs, indicated concentrations
T1 construct: Endogenous TEAD4 IP; endogenous in cells; host or cells: NCI-H226 mesothelioma cells
Protocol: Evaluation of CPD10 and CPD13 in NCI-H226 mesothelioma cell line: Actively growing cells were either DMSO added or treated with indicated concentrations of CPD10 and CPD13 for 24 hrs. Cells were collected in ice-cold PBS and pellets were lysed in IP Lysis Buffer (25 mM Tris-HCl pH 7.4, 150 mM NaCl, 1 mM EDTA, 1% NP-40 and 5% glycerol and competing amount of protease inhibitor). Samples were lysed by sonication, BCA assay was performed and equal concentration of protein were added with TEAD4 antibody (3 ul). After overnight incubation in cold room, samples were added with anti-rabbit magnetic beads to trap the TEAD and binding complex for 2 hrs. Samples were washed 3 times and bound fraction were collected with the help of magnetic stand. Samples were added with 4×LDS, competing amount of DTT, and boiled for 3 minutes. Whole cell lysate (Input) and IP samples were resolved in 8% SDS-PAGE gel and immunoblotted with indicated antibodies.
(§1) Relative quantification of immunoblot signals were quantified with IMAGE J software. Actively growing cells were added with indicated concentrations of CPD10 and CPD13 and cells were collected after 24 hrs. RNA was extracted and cDNA was synthesized. Indicated primer pairs were used for RT-PCR. Relative gene expression was determined by using GAPDH amplification.

[1] = system: TEADs transcriptional target genes; assay: RT PCR transcriptional profiling of TEADs target genes in A549 cells
Protocol: Method: A549 cells (at 60% confluency) either mock treated or treated with indicated doses of CPD 10 and CPD13 for 24 hrs. Cells were washed with ice-cold 1×PBS. RNA extraction was performed with Quick-RNA™ miniprep kit (Zymo Research, Cat. No. R1055), strictly according to manufacturer's instructions. Nanodrop quantified 2 μg of RNA samples were used for cDNA synthesis with cDNA Reverse Transcription Kit (Thermo Cat. No. 4368814) strictly according to the manufacturer's instructions. In RT PCR experiment, comparative target gene expression was performed by SYBR™ Green (Thermo Cat. No. 4309155) Master mix. Relative target gene expressions were compared and plotted on Y-Axis.
Result: Relative expression of YAP and TAZ in response to low dose of CPD10 (A) and CPD13 (B) treatment in A549 cells. c-MYC was included as non-transcriptional target of the TEADs. NFKB1 was included as its expression is reciprocal to the YAP/TAZ. Downstream effectors of the TEADs targets (CYR61, AXL, CTGF and ANKRD1) were determined in responses to 2.5, 5 and 10 μM of CPD10 (C) and CPD13 (D).
CPD10 and CPD13 Downregulate the TEADs transcriptional target genes: To determine CPD10 and CPD13 induced relative expression of TEADs target genes, A549 cells were treated with indicated doses for 24 hrs. Transcriptional profiling was performed with respective primer pairs. […] Further we tested the expression of one of the strong non hippo transcription factor, the C-Myc. As expected, c-MYC expression was not affected in response to CPD10 treatment (A). […] C-Myc expression was not affected. […] An Increase of NFKB1 expression is consistent with significant downregulation of YAP expression in response to CPD13 treatment (B). To determine the state of TEADs transcriptional target genes at higher concentrations, A549 cells were treated with indicated doses of compounds and analyzed for the expression of CYR61, AXL, CTGF and ANKRD1.

[2] = target: T2, TEAD4 binding to YAP and TAZ (Homo sapiens, UniProt Q15561); assay: GFP-TRAP assay to pull down TEAD4 binders in U20S cells expressing GFP fused TEAD4; settings: U20S cells expressing GFP fused TEAD4, 10 uM
T2 construct: expressed in transfected cells
Protocol: GFP-TRAP assay: To purify TEAD4 binders, GFP-Trap Magnetic Agarose (gtma-100) was used, and assay was performed strictly according to manufacturer's instructions. At the end of the assay, agarose beads were resuspended in 2×LDS lysis buffer, competing amount of DTT was added into it and samples were boiled for 3 minutes. Supernatants were collected and used for immunoblotting.
To determine whether CPD10 or 13 leads downregulation of TEAD4 binding to its transcriptional targets YAP and TAZ, U20S cells stably expressing GFP alone and GFP fused TEAD4 were either mock-treated or treated with indicated doses of CPD10. GFP-TRAP assay was performed to pull down TEAD4 binders, and immunoblotted. As one of the strong binders of the TEAD4, YAP/TAZ protein signal were detected in purified complex. […] The GFP blot indicating the GFP and GFP fused TEAD4 signal in whole cell lysates and purified protein samples (C).

[3] = system: TEAD transcriptional target genes; assay: RT-PCR profiling of YAP-TEAD transcriptional target genes in NCI-H226 cells; settings: 24 hrs
Protocol: as §1

U20S cells [4] = assay: Colony forming assay in U20S cells depleted of or overexpressing TEAD4
Protocol: In colony forming assay, indicated cells were plated at 5,000 cells density in 2 ml of DMEM medium. TEAD4 depletion was performed by reverse transfection with 20 nM of Dharmacon smart pool NTsiRNA and TEAD4 siRNA in 2.5 ul of lipofectamine mixed with 25% of OPTIMEM. After 18 hrs of transfection, cells were either DMSO treated or treated with indicated compounds at different doses. After 48 hrs of the treatment cells were recovered in a fresh medium for 4 days. At the end of the experiment cells were Glutaraldehyde fixed and stained in crystal violet solution for 2 hrs. After washing, plates were scanned for image processing.
In line with proliferation assay we performed colony forming assay in U20S cells either depleted or overexpressing TEAD4. Cells stably expressing GFP and GFP fused TEAD4 were also included in this assay.

U20S cells [5] = assay: Cell proliferation assay (Cell Titre Glow) in U20S cells
Protocol: (§2) Method: Indicated cells were plated at 3000 cells/80 μl in each well. TEAD4 depletion was performed by reverse transfection with 20 nM of Dharmacon smart pool NTsiRNA and TEAD4 siRNA in 0.25 ul of lipofectamine mixed with 25% of OPTIMEM. After 18 hrs of transfection, cells were recovered for 24 hrs in fresh DMEM medium. Cells were treated with indicated compounds at different doses. After 48 hrs of dosing cells were recovered in fresh medium for 3 days. Cell Titre Glow (CTG) assay was used.
(§3) U20S cells stably expressing GFP fused TEAD4 and GFP alone were treated with different doses of CPD10 and analysed for cellular proliferation. […] Further we used cell lines expressing higher level of TEAD4 and performed depletion experiment followed by comparative sensitivity analysis.

A549 cells = assay: Cell proliferation assay (Cell Titre Glow) in A549 cells with TEAD4 depletion; settings: TEAD4 depleted A549 cells, compared with NTsi treated cells
Protocol: as §2, §3

T1 sequence (Q15561 whole entry): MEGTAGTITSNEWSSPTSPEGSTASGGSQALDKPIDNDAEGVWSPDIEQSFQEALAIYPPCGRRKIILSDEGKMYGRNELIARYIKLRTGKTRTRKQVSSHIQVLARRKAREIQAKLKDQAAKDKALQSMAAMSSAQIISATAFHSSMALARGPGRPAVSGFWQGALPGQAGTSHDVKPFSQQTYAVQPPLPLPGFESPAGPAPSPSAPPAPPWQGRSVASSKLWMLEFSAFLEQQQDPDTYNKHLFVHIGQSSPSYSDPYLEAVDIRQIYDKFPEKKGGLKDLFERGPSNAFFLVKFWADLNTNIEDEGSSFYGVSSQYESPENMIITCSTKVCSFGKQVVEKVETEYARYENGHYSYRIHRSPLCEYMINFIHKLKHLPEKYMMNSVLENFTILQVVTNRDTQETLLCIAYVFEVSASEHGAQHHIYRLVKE
T2 sequence (Q15561 whole entry, the tested form may be a part): as the sequence (Q15561 whole entry) above

SMILES: C=CS(=O)(=O)CCC(=O)Nc1nn(-c2ccccc2)cc1C [CPD10]
- YAP-TEAD binding (TEAD4 IP, immunoblot) (YAP-TEAD binding): disrupted to a great extent
- ANKRD1 relative expression (RT PCR) ([1]; 24 hrs, 10 μM): significantly reduced
- AXL relative expression (RT PCR) ([1]; 24 hrs, 2.5, 5 and 10 μM): suppressed at 2.5 μM and subsequently downregulated in a dose dependent manner
- CTGF relative expression (RT PCR) ([1]; 24 hrs, 2.5, 5 and 10 μM): suppressed at 2.5 μM and subsequently downregulated in a dose dependent manner
- CYR61 relative expression (RT PCR) ([1]; 24 hrs, 2.5, 5 and 10 μM): suppressed at 2.5 μM and subsequently downregulated in a dose dependent manner
- NFKB1 relative expression (RT PCR) ([1]; 24 hrs, low dose): minor increase
- c-MYC relative expression (RT PCR) ([1]; 24 hrs, low dose): not affected
- YAP/TAZ relative expression (RT PCR) ([1]; 24 hrs, low dose (2.5 μM of CPD10)): downregulated
- YAP/TAZ binding to TEAD4 (GFP-TRAP pull down, immunoblot) [2]: significantly reduced
- TEAD transcriptional target genes expression (RT-PCR) [3]: repression
- colony forming sensitivity (U20S cells [4]; U20S cells overexpressing GFP fused TEAD4, in comparison to GFP alone): very high sensitivity
- colony forming sensitivity (U20S cells [4]; U20S cells treated with control siRNA, unlike TEAD4 depleted cells, 2.5 μM): very high sensitivity
- TEAD4 dependence of cellular sensitivity (siRNA depletion, colony forming) (U20S cells [4]; U20S cells, control siRNA vs TEAD4 siRNA): TEAD4 dependent
- cellular proliferation sensitivity (U20S cells [5]; U20S cells expressing GFP alone, low dose): didn't display sensitivity
- cellular proliferation sensitivity (U20S cells [5]; U20S cells overexpressing GFP-TEAD4, below 5 uM): higher sensitivity
- cellular proliferation sensitivity (A549 cells): lower sensitivity

Reference: patent US20250197355A1, “TEAD Targeting Compounds and Methods Thereof” (Agency for Science, Technology and Research, priority 2022, published 2025)
